Measured values published in publication PMC7887271, “Fast acting allosteric phosphofructokinase inhibitors block trypanosome glycolysis and cure acute African trypanosomiasis in mice” (Nature Communications, 2021).
pKd: −log10 of the molar value. Several values for one entry are separate records, joined by “and”; a condition that tells them apart may be missing. Equal values may be shown once.

Assays:
TbPFK [1] = molecular target: T1, TbPFK (Trypanosoma brucei brucei, UniProt O15648); assay: ALDO/G3PDH/TIM linked enzyme assay for measuring PFK inhibition; type: biochemical; set-up: key: absorbance at 340 nm (NADH)
T1 construct: made in house; host or cells: Escherichia coli C41 (pET28a, codon optimised gene)
T1 sequence (O15648 1-487): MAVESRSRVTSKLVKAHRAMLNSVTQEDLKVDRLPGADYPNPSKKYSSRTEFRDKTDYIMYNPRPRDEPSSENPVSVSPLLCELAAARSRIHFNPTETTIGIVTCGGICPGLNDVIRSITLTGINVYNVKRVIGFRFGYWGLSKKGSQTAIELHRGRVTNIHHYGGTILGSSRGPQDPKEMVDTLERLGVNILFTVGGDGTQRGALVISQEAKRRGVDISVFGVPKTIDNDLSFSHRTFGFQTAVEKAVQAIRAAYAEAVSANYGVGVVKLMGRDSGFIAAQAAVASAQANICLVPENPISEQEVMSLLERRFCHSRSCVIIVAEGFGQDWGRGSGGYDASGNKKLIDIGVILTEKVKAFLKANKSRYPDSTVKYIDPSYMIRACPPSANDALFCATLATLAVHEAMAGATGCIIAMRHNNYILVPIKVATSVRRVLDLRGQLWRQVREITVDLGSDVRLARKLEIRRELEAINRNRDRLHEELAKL
Procedure: In the PFK/PYK/LDH assay, the linked PYK activity acts to convert the ADP produced by PFK back to ATP. As ATP is an inhibitor of human PFK (but not TbPFK) at concentrations higher than ~0.5 mM the regeneration of ATP is likely to affect the assay readout. An alternative linked assay was therefore developed using PFK/aldolase (ALDO)/glycerol-3-phosphate dehydrogenase (G3PD)/triosephosphate isomerase (TIM). In this assay F16BP produced by PFK is subsequently converted by aldolase into dihydroxyacetone phosphate (DHAP) and glyceraldehyde 3-phosphate (GA3P). TIM interconverts GA3P and DHAP, and DHAP is reduced to glycerol 3-phosphate by G3PD, alongside the oxidation of NADH to NAD^+, which was measured by observing the change in UV absorbance at 340 nm for 10 minutes at 25° C using a Spectramax© M5 Multimode plate reader.
The assay buffer consisted of 50 mM TEA, 100 mM KCl, 10 mM MgCl2, 10% glycerol, 1 mM Tris(2-carboxyethyl)phosphine (TCEP), pH 7.4. Assay mix consisted of 5 U/ml G3PD (Sigma-Aldrich G6880), 2.5 U/ml ALDO (Sigma-Aldrich A2714), 25 U/ml TIM (Sigma-Aldrich T6258), and 1.25 mM NADH. ATP and F6P were obtained from Sigma-Aldrich (A2383 and F3627, respectively). All ligands and substrates (including ATP) were used at pH 7.4). 40 µl of assay mix, followed by 45 µl assay buffer, 4 µl of 0.1 mg/ml PFK and 1 µl of 100x serially diluted inhibitors were added to a non-binding, clear 96-well plate (Greiner Bio-One 655901) and incubated at RT for 10 minutes. The reaction was started by addition of 10 µl of 6 mM F6P (Supplementary Table 1).

[2] = Mouse hepatocytes intrinsic clearance; type: in vitro ADME
From the text: Methods are described in Supplementary Methods 5 and 6. Enzyme assay results are means ± SD in multiple assays. ADME results are averages of n = 2 or 3 measurements in individual assays.

CYP2D6 = molecular target: T2, CYP2D6 (Homo sapiens, UniProt P10635); assay: Inhibition of CYP2D6; type: in vitro ADME; settings: CYP450 isoform inhibition kit (BD Biosciences), probe AMMC
T2 construct: purchased BD Biosciences
T2 sequence (P10635 whole entry, canonical isoform): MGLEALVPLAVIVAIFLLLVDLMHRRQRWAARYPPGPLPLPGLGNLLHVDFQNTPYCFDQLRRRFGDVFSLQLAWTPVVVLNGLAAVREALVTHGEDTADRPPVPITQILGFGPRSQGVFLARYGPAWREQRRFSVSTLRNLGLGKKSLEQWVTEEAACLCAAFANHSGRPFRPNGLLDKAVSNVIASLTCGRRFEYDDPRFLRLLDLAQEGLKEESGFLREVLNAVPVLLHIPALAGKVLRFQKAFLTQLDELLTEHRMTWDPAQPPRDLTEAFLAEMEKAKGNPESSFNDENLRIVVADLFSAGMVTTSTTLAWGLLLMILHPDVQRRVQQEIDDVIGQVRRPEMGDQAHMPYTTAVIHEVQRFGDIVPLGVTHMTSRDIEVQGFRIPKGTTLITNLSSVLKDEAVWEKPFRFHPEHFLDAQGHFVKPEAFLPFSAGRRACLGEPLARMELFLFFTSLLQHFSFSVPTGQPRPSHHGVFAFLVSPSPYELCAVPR
Procedure: (§1) A HepG2 cytotoxicity assay was used to determine a cellular selectivity index. HepG2 cells were seeded into 96-well plates in EMEM medium. Compounds were assessed for their effect upon cellular viability (Supplementary Methods 5.1). Inhibition of CYP450 was determined using kits from BD Biosciences (Supplementary Methods 5.2). Metabolic stability was determined using mouse […] tested at a single concentration of 5 µM. Plasma protein binding was determined using mouse and human plasma at a single concentration of 10 µM (Supplementary Methods 5.4). All PK studies in mice were carried out by Pharmidex (Supplementary Methods 6.1).
(§2) The compounds were investigated for their inhibitory effect on cytochrome P450 (CYP450) activity using five CYP450 isoforms (with fluorescent substrates in brackets): 3A4 (two substrates, BFC and DBF), 2D6 (AMMC), 2C9 (MFC), 2C19 (CEC) and 1A2 (CEC). Kits from BD Biosciences were used along with the method described by the manufacturer. […] Fluorescence was measured using a SpectraMax M5 plate reader.

CYP2C19 = molecular target: T3, CYP2C19 (Homo sapiens, UniProt P33261); assay: Inhibition of CYP2C19; type: in vitro ADME; settings: CYP450 isoform inhibition kit (BD Biosciences), probe CEC
T3 construct: purchased BD Biosciences
T3 sequence (P33261 whole entry, canonical isoform): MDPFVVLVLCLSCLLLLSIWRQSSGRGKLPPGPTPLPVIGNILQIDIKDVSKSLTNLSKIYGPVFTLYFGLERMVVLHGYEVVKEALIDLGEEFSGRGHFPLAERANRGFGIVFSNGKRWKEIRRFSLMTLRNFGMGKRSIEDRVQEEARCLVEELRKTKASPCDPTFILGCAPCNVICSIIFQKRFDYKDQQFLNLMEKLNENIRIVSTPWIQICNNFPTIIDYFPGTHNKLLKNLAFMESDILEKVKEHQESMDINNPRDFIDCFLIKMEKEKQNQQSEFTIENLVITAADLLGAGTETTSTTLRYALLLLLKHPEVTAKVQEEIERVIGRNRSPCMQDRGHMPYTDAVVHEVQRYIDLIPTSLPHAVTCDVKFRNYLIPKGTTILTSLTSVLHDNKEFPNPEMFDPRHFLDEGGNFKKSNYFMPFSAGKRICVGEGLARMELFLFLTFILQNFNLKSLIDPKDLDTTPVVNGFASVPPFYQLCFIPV
Procedure: as §1, §2

TbPFK [3] = molecular target: T1, TbPFK; assay: Isothermal titration calorimetry (ITC); type: binding; settings: 25 °C
[4] = system: CYP3A4, CYP2D6, CYP2C9, CYP2C19, CYP1A2; assay: Inhibition of CYP450, five isoform panel; type: in vitro ADME; settings: human, CYP450 isoform inhibition kit (BD Biosciences), 3A4, 2D6, 2C9, 2C19, 1A2, read-out: % inhibition of CYP450 isoforms
Procedure: as §1, §2

CN(C)CCn1ccc2c(ccn2Cc2ccc(Cl)c(Cl)c2)c1=O [CTCB 405]
TbPFK reaction time course reading (Figure 6a) (TbPFK [1]; 0.02 uM CTCB 405, time 0.104167): 0.5676 and 0.5291
TbPFK reaction time course reading (Figure 6a) (TbPFK [1]; 0.02 uM CTCB 405, time 0.121528): 0.545 and 0.5077
TbPFK reaction time course reading (Figure 6a) (TbPFK [1]; 0.02 uM CTCB 405, time 0.138889): 0.5241 and 0.488
TbPFK reaction time course reading (Figure 6a) (TbPFK [1]; 0.02 uM CTCB 405, time 0.15625): 0.5057 and 0.4696
TbPFK reaction time course reading (Figure 6a) (TbPFK [1]; 0.02 uM CTCB 405, time 0.173611): 0.4873 and 0.4524
TbPFK reaction time course reading (Figure 6a) (TbPFK [1]; 0.02 uM CTCB 405, time 0.190972): 0.4705 and 0.4366
TbPFK reaction time course reading (Figure 6a) (TbPFK [1]; 0.05 uM CTCB 405, time 0.104167): 0.6118 and 0.5698
TbPFK reaction time course reading (Figure 6a) (TbPFK [1]; 0.05 uM CTCB 405, time 0.121528): 0.5919 and 0.5511
TbPFK reaction time course reading (Figure 6a) (TbPFK [1]; 0.05 uM CTCB 405, time 0.138889): 0.5731 and 0.5324
TbPFK reaction time course reading (Figure 6a) (TbPFK [1]; 0.05 uM CTCB 405, time 0.15625): 0.5537 and 0.5159
TbPFK reaction time course reading (Figure 6a) (TbPFK [1]; 0.05 uM CTCB 405, time 0.173611): 0.5368 and 0.4994
TbPFK reaction time course reading (Figure 6a) (TbPFK [1]; 0.05 uM CTCB 405, time 0.190972): 0.5212 and 0.4835
TbPFK reaction time course reading (Figure 6a) (TbPFK [1]; 0.43 uM CTCB 405, time 0.104167): 0.7703 and 0.7388
TbPFK reaction time course reading (Figure 6a) (TbPFK [1]; 0.43 uM CTCB 405, time 0.121528): 0.7663 and 0.7359
TbPFK reaction time course reading (Figure 6a) (TbPFK [1]; 0.43 uM CTCB 405, time 0.138889): 0.7635 and 0.7314
TbPFK reaction time course reading (Figure 6a) (TbPFK [1]; 0.43 uM CTCB 405, time 0.15625): 0.7593 and 0.7286
TbPFK reaction time course reading (Figure 6a) (TbPFK [1]; 0.43 uM CTCB 405, time 0.173611): 0.7551 and 0.7249
TbPFK reaction time course reading (Figure 6a) (TbPFK [1]; 0.43 uM CTCB 405, time 0.190972): 0.7517 and 0.7206
TbPFK reaction time course reading (Figure 6a) (TbPFK [1]; 0.43 uM CTCB 405, time 0.208333): 0.7473 and 0.7169
TbPFK reaction time course reading (Figure 6a) (TbPFK [1]; 1.29 uM CTCB 405, time 0.104167): 0.8081 and 0.7679
TbPFK reaction time course reading (Figure 6a) (TbPFK [1]; 1.29 uM CTCB 405, time 0.121528): 0.808 and 0.7688
TbPFK reaction time course reading (Figure 6a) (TbPFK [1]; 1.29 uM CTCB 405, time 0.138889): 0.8069 and 0.768
TbPFK reaction time course reading (Figure 6a) (TbPFK [1]; 1.29 uM CTCB 405, time 0.15625): 0.8064 and 0.7673
TbPFK reaction time course reading (Figure 6a) (TbPFK [1]; 1.29 uM CTCB 405, time 0.173611): 0.8063 and 0.7675
TbPFK reaction time course reading (Figure 6a) (TbPFK [1]; 1.29 uM CTCB 405, time 0.190972): 0.8048 and 0.7672
TbPFK reaction time course reading (Figure 6a) (TbPFK [1]; 3.88 uM CTCB 405, time 0.104167): 0.8165 and 0.7707
TbPFK reaction time course reading (Figure 6a) (TbPFK [1]; 3.88 uM CTCB 405, time 0.121528): 0.8167 and 0.7708
TbPFK reaction time course reading (Figure 6a) (TbPFK [1]; 3.88 uM CTCB 405, time 0.138889): 0.8177 and 0.7708
TbPFK reaction time course reading (Figure 6a) (TbPFK [1]; 3.88 uM CTCB 405, time 0.15625): 0.8174 and 0.7711
TbPFK reaction time course reading (Figure 6a) (TbPFK [1]; 3.88 uM CTCB 405, time 0.173611): 0.8172 and 0.7718
TbPFK reaction time course reading (Figure 6a) (TbPFK [1]; 3.88 uM CTCB 405, time 0.190972): 0.8172 and 0.7712
TbPFK reaction time course reading (Figure 6a) (TbPFK [1]; 11.66 uM CTCB 405, time 0.104167): 0.818 and 0.7732
TbPFK reaction time course reading (Figure 6a) (TbPFK [1]; 11.66 uM CTCB 405, time 0.121528): 0.8194 and 0.7744
TbPFK reaction time course reading (Figure 6a) (TbPFK [1]; 11.66 uM CTCB 405, time 0.138889): 0.8194 and 0.7745
TbPFK reaction time course reading (Figure 6a) (TbPFK [1]; 11.66 uM CTCB 405, time 0.15625): 0.8194 and 0.7742
TbPFK reaction time course reading (Figure 6a) (TbPFK [1]; 11.66 uM CTCB 405, time 0.173611): 0.8203 and 0.7754
TbPFK reaction time course reading (Figure 6a) (TbPFK [1]; 11.66 uM CTCB 405, time 0.190972): 0.82 and 0.776
TbPFK reaction time course reading (Figure 6a) (TbPFK [1]; 35 uM CTCB 405, time 0.104167): 0.7782 and 0.7773
TbPFK reaction time course reading (Figure 6a) (TbPFK [1]; 35 uM CTCB 405, time 0.121528): 0.7782 and 0.776
TbPFK reaction time course reading (Figure 6a) (TbPFK [1]; 35 uM CTCB 405, time 0.138889): 0.7789 and 0.7774
TbPFK reaction time course reading (Figure 6a) (TbPFK [1]; 35 uM CTCB 405, time 0.15625): 0.7788 and 0.7781
TbPFK reaction time course reading (Figure 6a) (TbPFK [1]; 35 uM CTCB 405, time 0.173611): 0.779 and 0.7789
TbPFK reaction time course reading (Figure 6a) (TbPFK [1]; 35 uM CTCB 405, time 0.190972): 0.7794 and 0.7785

CN(C)CCn1ccc2c(ccn2Cc2ccc(Cl)c(Cl)c2)c1=O [CTCB-405, 1-[(3,4-Dichlorophenyl)methyl]-5-[2-(dimethylamino)ethyl] pyrrolo[3,2-c]pyridin-4-one]
Mouse hepatocytes Clint [2]: 3.7 µL min^−1 per 10^6 cells
inhibition at 10 µM (CYP2D6): 60%
inhibition at 10 µM (CYP2C19): 64%
pKd (TbPFK [3]): 7.04
TΔS contribution (TbPFK [3]; ITC): -4.03 kcal/mol
ΔG (TbPFK [3]; ITC): -9.57 kcal/mol
ΔH (TbPFK [3]; ITC): -13.6 kcal/mol

CN(C)CCn1ccc2c(ccn2Cc2ccc(Cl)c(Br)c2)c1=O [CTCB-470, 1-[(3-Bromo-4-chlorophenyl)methyl]-5-[2-(dimethylamino)ethyl] pyrrolo[3,2-c]pyridin-4-one]
Mouse hepatocytes Clint [2]: 3.6 µL min^−1 per 10^6 cells
inhibition at 10 µM (CYP2C19): 45%

CN(C)CCn1ccc2c(ccn2Cc2ccc(F)c(Br)c2)c1=O [CTCB-508, 1-[(3-Bromo-4-fluorophenyl)methyl]-5-[2-(dimethylamino)ethyl] pyrrolo[3,2-c]pyridin-4-one]
inhibition at 10 µM [4]: ≤ 10%
